In article PMC13386468 (ACS Chemical Biology, 2025):
Where two headings read alike, the source gives them in different places.

Key:
[1] = biological target: T1, calcium-dependent protein kinase 1 (PfCDPK1, PF3D7_0217500) (Plasmodium falciparum, UniProt P62344); assay: Kinobead competitive pulldown from asexual blood stage parasite lysate, mass spectrometry; assay type: biochemical
T1 construct: gene CDPK1

[2] = biological target: Aurora-related kinase 1 (PfArk1, PF3D7_0605300) (Plasmodium falciparum, UniProt C6KSQ1); assay: KinaseSeeker competition binding assay with recombinant kinase; also Kinobead competition (Kd app […]) and conditional knockdown sensitization ([…])
[3] = biological target: T2, cAMP-dependent protein kinase catalytic subunit (PfPKAc, PF3D7_0934800) (Plasmodium falciparum, UniProt Q7K6A0); assay: Kinobead competitive pulldown from asexual blood stage parasite lysate, mass spectrometry; assay type: biochemical
T2 construct: with PfPKAr (PF3D7_1223100)
T2 sequence (Q7K6A0 1-342): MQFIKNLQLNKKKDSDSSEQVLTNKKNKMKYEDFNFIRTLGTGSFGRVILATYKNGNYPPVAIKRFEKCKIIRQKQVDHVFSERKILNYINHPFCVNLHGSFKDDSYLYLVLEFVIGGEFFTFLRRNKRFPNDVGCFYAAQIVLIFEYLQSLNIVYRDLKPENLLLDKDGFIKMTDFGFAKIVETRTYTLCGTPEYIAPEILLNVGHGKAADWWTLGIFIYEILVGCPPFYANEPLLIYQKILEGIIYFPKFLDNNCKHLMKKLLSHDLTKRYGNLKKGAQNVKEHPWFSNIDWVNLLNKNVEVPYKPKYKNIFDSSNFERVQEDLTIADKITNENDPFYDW
T2 sequence (Q7KQK0 1-441 partner): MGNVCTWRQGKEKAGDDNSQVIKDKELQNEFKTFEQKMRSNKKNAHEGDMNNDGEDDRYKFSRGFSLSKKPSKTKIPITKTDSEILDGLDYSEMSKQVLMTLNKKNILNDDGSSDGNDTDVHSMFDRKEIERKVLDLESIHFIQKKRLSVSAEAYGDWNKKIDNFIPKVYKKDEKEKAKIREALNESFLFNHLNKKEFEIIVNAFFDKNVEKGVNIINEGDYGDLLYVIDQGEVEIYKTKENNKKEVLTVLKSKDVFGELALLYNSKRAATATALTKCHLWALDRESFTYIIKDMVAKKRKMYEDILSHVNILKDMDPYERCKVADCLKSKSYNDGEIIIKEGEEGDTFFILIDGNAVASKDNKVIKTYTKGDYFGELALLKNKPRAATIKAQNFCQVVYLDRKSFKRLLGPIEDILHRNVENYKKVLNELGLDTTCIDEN

[4] = biological target: T3, glycogen synthase kinase 3 β (PfGSK3β, PF3D7_0312400) (Plasmodium falciparum, UniProt O77344); assay: KinaseSeeker competition binding assay with recombinant kinase; also Kinobead competition (IC50 […]); settings: read-out: IC50 value ± SEM or SD ^c
T3 sequence (O77344 1-440): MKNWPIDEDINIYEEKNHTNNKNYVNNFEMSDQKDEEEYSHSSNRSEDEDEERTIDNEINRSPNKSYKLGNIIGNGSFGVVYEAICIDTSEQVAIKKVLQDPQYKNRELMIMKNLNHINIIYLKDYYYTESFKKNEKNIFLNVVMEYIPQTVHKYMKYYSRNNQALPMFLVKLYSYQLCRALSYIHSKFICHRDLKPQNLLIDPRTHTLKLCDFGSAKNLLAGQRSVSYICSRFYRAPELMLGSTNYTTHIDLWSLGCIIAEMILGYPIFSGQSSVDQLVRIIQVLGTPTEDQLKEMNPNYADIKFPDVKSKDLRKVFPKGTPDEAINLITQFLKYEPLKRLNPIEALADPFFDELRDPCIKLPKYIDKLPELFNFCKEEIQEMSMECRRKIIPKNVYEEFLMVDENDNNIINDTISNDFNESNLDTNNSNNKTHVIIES

[5] = biological target: T4, 3-phosphoinositide-dependent protein kinase 1 (PfPDK1, PF3D7_1121900) (Plasmodium falciparum, UniProt Q8IIE7); assay: Kinobead competitive pulldown from asexual blood stage parasite lysate, mass spectrometry; assay type: biochemical
T4 sequence (Q8IIE7 1-525): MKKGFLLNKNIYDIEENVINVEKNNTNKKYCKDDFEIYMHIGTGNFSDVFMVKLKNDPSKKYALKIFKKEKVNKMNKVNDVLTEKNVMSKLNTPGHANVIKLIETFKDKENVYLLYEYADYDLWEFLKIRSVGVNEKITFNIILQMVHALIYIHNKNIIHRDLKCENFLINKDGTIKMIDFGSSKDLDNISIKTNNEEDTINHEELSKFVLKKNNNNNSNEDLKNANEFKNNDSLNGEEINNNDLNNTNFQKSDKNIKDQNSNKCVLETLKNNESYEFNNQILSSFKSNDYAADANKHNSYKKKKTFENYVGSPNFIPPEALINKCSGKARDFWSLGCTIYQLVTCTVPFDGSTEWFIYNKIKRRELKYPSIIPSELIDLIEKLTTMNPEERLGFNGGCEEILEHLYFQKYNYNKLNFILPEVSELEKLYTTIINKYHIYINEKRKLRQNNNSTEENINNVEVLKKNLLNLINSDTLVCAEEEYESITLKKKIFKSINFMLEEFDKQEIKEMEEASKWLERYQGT

[6] = biological target: T5, Serine/threonine protein kinase ; PF3D7_0605300 ; C6KSQ1 (Plasmodium falciparum, UniProt C6KSQ1); assay: biochemical; parameters: species or system Plasmodium falciparum asexual blood stage lysate; Kinobeads competitive pulldown from asexual blood stage P. falciparum extract, TMT quantitative mass spectrometry, apparent Kd; settings: Kdapp, apparent Kd, Kinobeads competition
T5 sequence (C6KSQ1 1-353): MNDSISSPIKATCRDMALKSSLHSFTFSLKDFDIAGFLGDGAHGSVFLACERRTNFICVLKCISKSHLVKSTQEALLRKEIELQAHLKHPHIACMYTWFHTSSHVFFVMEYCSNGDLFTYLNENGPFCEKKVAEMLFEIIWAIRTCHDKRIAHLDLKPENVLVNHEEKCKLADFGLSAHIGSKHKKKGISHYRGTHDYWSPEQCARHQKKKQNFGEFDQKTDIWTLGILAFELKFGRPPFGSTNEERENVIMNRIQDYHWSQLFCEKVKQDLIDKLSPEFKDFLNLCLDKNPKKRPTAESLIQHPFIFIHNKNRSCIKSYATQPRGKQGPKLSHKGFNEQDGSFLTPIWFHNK
Text: Eluted kinases are quantified in a dose-dependent manner via mass spectrometry. […] Data and error bars represent the mean and SD from two independent experiments. […] Data are plotted as the mean with error bars representing the SEM where N,n = 3,2.

[7] = tested on: T6, Plasmodium falciparum PfDd2; assay: microbe, parasite or virus in culture; parameters: species or system P. falciparum asexual blood stages; asexual blood stage growth inhibition, pLDH read-out; settings: read-out: Mean IC50 ± SEM (µM), pLDH
T6 construct: Dd2
Protocol: (§1) Parasite growth inhibition was calculated relative to untreated controls, and IC50 values were determined by fitting dose-response curves. Each assay plate included appropriate growth, vehicle, and positive control wells.

[8] = tested on: T7, Plasmodium falciparum PfCam3.II; assay: microbe, parasite or virus in culture; parameters: species or system P. falciparum asexual blood stages; asexual blood stage growth inhibition, SYBR Green I read-out; settings: read-out: Mean IC50 ± SEM (µM), SYBR Green I
T7 construct: Cam3.II
Protocol: as §1

[9] = tested on: T8, Plasmodium falciparum PfNF54 (WT); assay: microbe, parasite or virus in culture; parameters: species or system P. falciparum asexual blood stages; asexual blood stage growth inhibition, SYBR Green I read-out; settings: read-out: Mean IC50 ± SEM (µM), SYBR Green I
T8 construct: NF54
Protocol: as §1

[10] = tested on: T9, Plasmodium falciparum PfRF7; assay: microbe, parasite or virus in culture; parameters: species or system P. falciparum asexual blood stages; asexual blood stage growth inhibition, SYBR Green I read-out; settings: read-out: Mean IC50 ± SEM (µM), SYBR Green I
T9 construct: RF7
Protocol: as §1

[11] = in vitro; parameters: HepG2 liver cell cytotoxicity; settings: human, hepg2 cells; read-out: Liver cytotoxicity HepG2 IC50
Text: (§2) Moderate activity was also observed against immature and late-stage gametocytes, in the low micromolar range, as well as against liver stages, in the submicromolar range (Table and Supplementary Table S3).

[12] = tested on: T10, Plasmodium berghei Liver-stage PbLuc; assay: microbe, parasite or virus in culture; parameters: liver-stage Plasmodium berghei luciferase inhibition assay
T10 construct: PbLuc (luciferase reporter)
Text: as §2

[13] = tested on: T8, Plasmodium falciparum PfNF54 (WT); assay: microbe, parasite or virus in culture; parameters: species or system P. falciparum asexual blood stages; asexual blood stage growth inhibition, modified [3H]-hypoxanthine incorporation; settings: read-out: PfNF54 control (–Shield-1) IC50 (nM)

T1 sequence (P62344 2-524): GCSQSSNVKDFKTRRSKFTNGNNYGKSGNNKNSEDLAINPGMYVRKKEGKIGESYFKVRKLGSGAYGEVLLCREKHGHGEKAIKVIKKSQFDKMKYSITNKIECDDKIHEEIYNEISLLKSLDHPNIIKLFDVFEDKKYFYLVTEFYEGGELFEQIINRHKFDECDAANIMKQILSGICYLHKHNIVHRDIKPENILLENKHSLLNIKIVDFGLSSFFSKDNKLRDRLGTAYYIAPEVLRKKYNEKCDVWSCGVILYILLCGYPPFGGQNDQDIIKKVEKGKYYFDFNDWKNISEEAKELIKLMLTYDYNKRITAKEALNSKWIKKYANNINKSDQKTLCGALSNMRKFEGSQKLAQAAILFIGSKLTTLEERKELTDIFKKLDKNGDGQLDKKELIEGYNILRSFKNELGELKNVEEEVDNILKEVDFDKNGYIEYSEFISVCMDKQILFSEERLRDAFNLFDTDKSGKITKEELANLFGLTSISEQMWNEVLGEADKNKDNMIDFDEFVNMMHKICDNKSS

`O=c1[nH]c2ccc(Cl)cc2c(N[C@@H]2CN3CCC2CC3)c1-c1nc2ccccc2[nH]1` [CHIR-124] gave a Kd [1] of 40 nM, an IC50 [2] of 380 ± 70 nM and a Kd [3] of 610 nM. It also gave an IC50 [4] of 200 ± 20 nM, a Kd [5] of 100 nM and a Kd ([6]; Experiment ID=X048537) of 180 nM. For the same compound, the Kd ([6]; Experiment ID=X048538) was 156 nM, the IC50 [7] was 0.44 ± 0.05 µM and the IC50 [8] was 0.016 ± 0.002 µM. The IC50 [9] was 0.033 ± 0.002 µM, the IC50 [10] was 0.01 ± 0.001 µM and the CC50 [11] was 4300 nM. The IC50 [12] was 310 nM and the IC50 [13] was 36 ± 7 nM.
